Test results: EPA's ToxValDB 9.5 (doi:10.2903/j.efsa.2009.192r)
Converted amounts (≈) assume the structure as drawn.

Key:
[1] = tested on: Canidae; settings: oral, Dog Other, clinical signs
[2] = tested on: Rattus norvegicus
[3] = tested on: Apis mellifera; settings: acute; duration: 48 hours; dermal; mortality
[4] = tested on: Oncorhynchus mykiss
[5] = tested on: Folsomia candida; settings: chronic/long-term; duration: 28 days
[6] = tested on: Anas platyrhynchos; settings: for LD50: oral, mortality
[7] = tested on: Daphnia magna; settings: chronic/long-term; duration: 21 days; reproduction
[8] = tested on: Colinus virginianus; settings: acute, oral, mortality
[9] = tested on: Tagia sp.

CCc1nn(C)c(C(=O)NCc2ccc(C(C)(C)C)cc2)c1Cl [Tebufenpyrad]
NOAEL ([1]; chronic, duration: 1 years): 2 mg/kg-day | NOAEL ([1]; subchronic, duration: 90 days): 2 mg/kg-day | LD50 ([2]; acute, oral, M/F, Fischer 344, mortality): 320 mg/kg-day | NOEL ([2]; chronic, body weight): 8.4 mg/kg-day | NOAEL ([2]; chronic, duration: 2 years, oral, diet, organ weight): 0.8 mg/kg-day | NOAEL ([2]; reproduction developmental, reproduction): 15.3 mg/kg-day | NOAEL ([2]; subchronic, duration: 90 days, oral, organ weight): 0.7 mg/kg-day | LD50 [3]: > 6.7 µg/piece | LC50 ([4]; acute, duration: 96 hours, mortality): 0.03 µg/mL (≈ 0.0899 µM) | NOEC ([4]; chronic/long-term, duration: 94 days): 0.00245 mg/L | NOEC [5]: 9.38 g/ha | LD50 ([6]; acute, unspecified): > 2000 mg/kg-day | NOEL ([6]; reproductive): 6.6 mg/kg-day | LD50 ([6]; short-term, feed): > 75 mg/kg-day | NOEC [7]: 0.0024 mg/L | LD50 ([8]; diet): > 439 mg/kg-day | LD50 [8]: > 2000 mg/kg-day | LC50 ([9]; acute, duration: 14 days, mortality): 41 mg/kg | NOEC ([9]; chronic/long-term): 0.66 mg/kg
